From US11369565B2, “Amino-pyrimidine skeletal muscle modulators” (Cytokinetics, Inc., priority 2010, dated 2022)

System: rabbit skeletal myofibrils (approximately 90% fast fibers)
Test: Activation of fast skeletal myofibrils (PUMA coupled-enzyme ATPase assay at pCa25)
Format: biochemical
Conditions: concentration at which the compound increased the enzymatic activity by 40%; calcium at pCa25; PM12 buffer pH 6.8
In short: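 In pH 6.8 PM12 buffer (12 mM Pipes, 2 mM MgCl2, 1 mM DTT), ADP from myosin regenerated via pyruvate kinase/lactate dehydrogenase, with absorbance change at 340 nm from NADH oxidation as read-out. Calcium set at pCa25; Triton-washed rabbit skeletal myofibrils (about 90% fast fibres) used.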

Row | Compound | Mean AC1.4
1 | NC(=O)Cc1cnc(-c2cnc(NCC3(c4ncccc4Cl)CCC3)nc2)s1 [2-{2-[2-({[(3-chloro-2-pyridyl)cyclobutyl]methyl}amino)pyrimidin-5-yl]-1,3-thiazol-5-yl}acetamide] | A (A=<1 uM)
2 | CC(C)(Nc1ncc(-n2cc(C(N)=O)cn2)cn1)c1ncccc1F [1-(2-{[1-(3-fluoro(2-pyridyl))-isopropyl]amino}pyrimidin-5-yl)pyrazole-4-carboxamide] | D (D=>20 uM)
3 | CC(C)(C)OC(=O)NCc1cnc(-c2cnc(NCC3(c4ccccn4)CCC3)nc2)s1 [(tert-butoxy)-N-{[2-(2-{[(2-pyridylcyclobutyl)methyl]amino}pyrimidin-5-yl)(1,3-thiazol-5-yl)]methyl}carboxamide] | B (B=1-10 uM)
4 | CC(C)(Nc1ncc(-c2nc(CC(N)=O)cs2)cn1)c1ncccc1F [2-[2-(2-{[1-(3-fluoro(2-pyridyl))-isopropyl]amino}pyrimidin-5-yl)-1,3-thiazol-4-yl]acetamide] | D (D=>20 uM)
5 | CC(C)(Nc1ncc(C#N)cn1)c1ncccc1Cl [2-{[1-(3-chloro(2-pyridyl))-isopropyl]amino}pyrimidine-5-carbonitrile] | D (D=>20 uM)
6 | CC(C)(Nc1ncc(-c2ncc(C(N)=O)s2)cn1)c1ncccc1F [2-(2-{[1-(3-fluoro(2-pyridyl))-isopropyl]amino}pyrimidin-5-yl)-1,3-thiazole-5-carboxamide] | D (D=>20 uM)
7 | CC(C)(Nc1ncc(-c2ncc(C#N)s2)cn1)c1ncccc1F [2-(2-{[1-(3-fluoro(2-pyridyl))-isopropyl]amino}pyrimidin-5-yl)-1,3-thiazole-5-carbonitrile] | D (D=>20 uM)
8 | NC(=O)c1cnc(-c2cnc(NCC3(c4ccccn4)CCC3)nc2)s1 [2-(2-{[(2-pyridylcyclobutyl)methyl]amino}pyrimidin-5-yl)-1,3-thlazole-5-carboxamide] | B (B=1-10 uM)
9 | CC(C)(Nc1ncc(-c2cn3cccc(C(N)=O)c3n2)cn1)c1ncccc1Cl [2-(2-{[1-(3-chloro(2-pyridyl))-isopropyl]amino}pyrimidin-5-yl)-4-hydroimidazo[1,2-a]pyridine-8-carboxamide] | B (B=1-10 uM)
10 | NC(=O)c1ccc2nc(NC3(c4ncccc4F)CCC3)ncc2c1 [2-{[(3-fluoro-2-pyridyl)cyclobutyl]amino} quinazoline-6-carboxamide] | D (D=>20 uM)
11 | NC(=O)c1ccnc(-c2cnc(NC[C@]3(c4ncccc4F)C[C@H](F)C3)nc2)n1 [2-[2-({[3-fluoro-1-(3-fluoro(2-pyridyl))cyclobutyl]methyl}amino)pyrimidin-5-yl]pyrimidine-4-carboxamide] | B (B=1-10 uM)
12 | NC(=O)c1cnn(-c2cnc(NCC3(c4ncccc4F)CCC3)nc2)c1 [1-[2-({[(3-fluoro-2-pyridyl)cyclobutyl]methyl}amino)pyrimidin-5-yl] pyrazole-4-carboxamide] | B (B=1-10 uM)
13 | O=C(O)c1cnn(-c2cnc(NCC3(c4ncccc4F)CCC3)nc2)c1 [1-[2-({[(3-fluoro-2-pyridyl)cyclobutyl]methyl}amino)pyrimidin-5-yl]pyrazole-4-carboxylic acid] | D (D=>20 uM)
14 | CC(C)(Nc1ncc(-c2cn3c(C(N)=O)csc3n2)cn1)c1ncccc1Cl | B (B=1-10 uM)

Continued, values first:

Row | Mean AC1.4 | Compound
15 | B (B=1-10 uM) | Fc1cc2[nH]ncc2cc1-c1cnc(NC2(c3ncccc3F)CCC2)nc1 [[5-(6-fluoro(1H-indazol-5-yl))pyrimidin-2-yl][(3-fluoro(2-pyridyl))cyclobutyl]amine]
16 | A (A=<1 uM) | NC(=O)c1ccc(O)c(-c2cnc(NCC3(c4ncccc4F)CCC3)nc2)c1 [3-[2-({[(3-fluoro(2-pyridyl))cyclobutyl]methyl}amino)pyrimidin-5-yl]-4-hydroxybenzamide]
17 | A (A=<1 uM) | NC(=O)c1ccc(F)c(-c2cnc(NCC3(c4ccccn4)CCC3)nc2)c1 [4-fluoro-3-(2-{[(2-pyridylcyclobutyl]methyl]amino}pyrimidin-5-yl)benzamide]
18 | C (C=10-20 uM) | CC(=O)NCc1cccc(-c2cnc(NC(C)(C)c3ncccc3F)nc2)c1 [N-{[3-(2-{[1-(3-fluoro(2-pyridyl))-isopropyl]amino}pyrimidin-5-yl)phenyl]methyl}acetamide]
19 | D (D=>20 uM) | CC(C)(Nc1ncc(-c2nc(CNC(=O)[C@H]3CCCN3)cs2)cn1)c1ncccc1F [((2R)pyrrolidin-2-yl)-N-{[2-(2-{[1-(3-fluoro(2-pyridyl))-isopropyl]amino}pyrimidin-5-yl)(1,3-thiazo-4-yl)]methyl}carboxamide]
20 | D (D=>20 uM) | CC(C)(Nc1ncc(-n2cc(C(=O)NCCO)cn2)cn1)c1ncccc1Cl [[1-(2-{[1-(3-chloro(2-pyridyl))-isopropyl]amino}pyrimidin-5-yl)pyrazol-4-yl]-N-(2-hydroxyethyl)carboxamide]
21 | D (D=>20 uM) | O=C(Nc1cnc(NCC2(c3ncccc3F)CCC2)nc1)c1nccs1 [N-[2-(([(3-fluoro(2-pyridyl))cyclobutyl]methyl}amino)pyrimidin-5-yl]-1,3-thiazol-2-ylcarboxamide]
22 | B (B=1-10 uM) | Oc1ccc(-c2cnc(NC[C@]3(c4ncccc4F)C[C@H](F)C3)nc2)nc1 [6-[2-({[3-fluoro-1-(3-fluoro(2-pyridyl))cyclobutyl]methyl}amino)pyrimidin-5-yl]pyridin-3-ol]
23 | D (D=>20 uM) | CC(C)(CNc1ncc2c(n1)CCNC2)c1ccc(F)cc1 [[2-(4-fluorophenyl)-2-methylpropyl]-5,6,7,8-tetrahydropyridino[4,3-d]pyrimidin-2-ylamine]
24 | A (A=<1 uM) | NC(=O)c1ccc(O)c(-c2cnc(NC[C@]3(c4ncccc4F)C[C@H](F)C3)nc2)c1 [3-[2-({[3-fluoro-1-(3-fluoro(2-pyridyl))cyclobutyl]methyl}amino)pyrimidin-5-yl]-4-hydroxybenzamide]
25 | A (A=<1 uM) | [5-(2-{[1-(3-chloro(2-pyridyl))- isopropyl}amino}pyrimidin-5-yl)(1H- indazol-3-yl)]methylsulfonyl)amine
26 | D (D=>20 uM) | N#Cc1ccc2nc(NC3(c4ncccc4F)CCC3)ncc2c1 [2-{[(3-fluoro-2-pyridyl)cyclobutyl]amino}quinazoline-6-carbonitrile]
27 | D (D=>20 uM) | CC(C)(Nc1ncc(-c2cccc(C(N)=O)c2)cn1)c1ccccc1S(C)(=O)=O [3-[2-({1-methyl-1-[2-(methylsulfonyl)phenyl]ethyl}amino)pyrimidin-5-yl]benzamide]
28 | D (D=>20 uM) | CCOC(=O)c1cc(-c2cnc(NC(C)(C)c3ncccc3Cl)nc2)no1 [ethyl 3-(2-{[1-(3-chloro(2-pyridyl))-isopropyl]amino}pyrimidin-5-yl)isoxazole-5-carboxylate]
29 | C (C=10-20 uM) | CC(C)(Nc1ncc(-c2cc(C(N)=O)on2)cn1)c1ncccc1Cl [3-(2-{[1-(3-chloro(2-pyridyl))-isopropyl]amino}pyrimidin-5-yl)isoxazole-5-carboxamide]
30 | D (D=>20 uM) | Fc1cccnc1C1(Nc2ncc(Br)cn2)CCC1 [(5-bromopyrimidin-2-yl)[(3-fluoro(2-pyridyl))cyclobutyl]amine]
31 | A (A=<1 uM) | NC(=O)c1ccc(F)c(-c2cnc(NCC3(c4ncccc4Cl)CC(F)(F)C3)nc2)c1 [3-[2-({[1-(3-chloro(2-pyridyl))-3,3-difluorocyclobutyl]methyl}amino)pyrimidin-5-yl]-4-fluorobenzamide]
